Patent US4916146A, “Amino acid imide derivatives, usage thereof, and medicinal composition containing the same” (Zeria Pharmaceutical Co., Ltd., priority 1987, dated 1990)
Read-outs that look alike come from different tables or passages of the source.

How the values were obtained:
[1] = target: prolyl endopeptidase from Flavobacterium (Elizabethkingia meningoseptica, UniProt P27028); assay: biochemical
Procedure: Inhibitory activity of the compound of formula (I) against prolyl endopeptidase from Flavobacterium was measured according to the method of Yoshimoto and Tsuru [Arg.
Prolyl endopeptidase was dissolved with 20 mM Tris-HCl buffer (pH 7.4) at a concentration of 0.4 unit/ml. This solution (100 μl) was added to 890 μl of the same buffer, and the solution thus obtained was left at room temperature for 10 minutes. (This solution is herein referred to as an "Enzyme solution"). This buffer (990 μl) was used as a "Correction solution".
Test compound dissolved with dimethylsulfoxide (10 μl) was added to the Enzyme solution. The solution was stirred and allowed to stand at room temperature for 10 minutes. Separately, 10 μl of dimethylsulfoxide was added to Enzyme solution and was processed in the same manner. The solution thus obtained was served as a "Control solution". The same procedure was carried out on the Correction solution.
Enzyme activities were determined by subtracting the blank value, i.e., the absorbance measured on the Correction solution, from the absorbance of each of the sample solutions or of the Control solution.

[2] = target: T1, prolyl endopeptidase prepared from canine brains (Canis lupus familiaris, UniProt A0A8I3N6C8); assay: Inhibitory activity against prolyl endopeptidase from brain; format: biochemical; settings: substrate carbobenzoxyglycylprolyl paranitroanilide, 37° C., 10 minutes, read-out: Inhibition Potency, IC50
T1 construct: Prolyl endopeptidase was prepared from canine brains; from tissue; host or cells: canine brain
Procedure: Buffer A: 20 mM Tris-HCl buffer (pH 7.0)
Buffer B: a solution containing 0.1% gelatin, 1 mM EDTA, and 1 mM mercapto ethanol in buffer solution A
Prolyl endopeptidase was dissolved with the Buffer B at a concentration of 0.4 unit/ml. This solution (50 μl) was added to 940 μl of the Buffer A, and the solution thus obtained was left at 37° C. for 10 minutes (This solution is herein referred to as "Enzyme solution"). A mixed solution of 50 μl of the Buffer B and 940 μl of Buffer A was used as a "Correction solution".
A test compound was dissolved with dimathylsulfoxide (10 μl) was added to the Enzyme solution. The mixture was stirred and allowed to stand at 37° C. for 10 minutes. Separately, 10 μl of dimethylsulfoxide was added to the Enzyme solution and was processed in the same manner. The solution thus obtained was served as a "Control solution". The same procedure was carried out on the Correction solution.
One hundred micoliters of 2.5 mM carbobezoxyglycylprolyl paranitroanilide, which was dissolved with 40% dioxane, was added to each of the above 3 solutions, i.e., the Enzyme solution with the test compound, Control solution, and Correction solution, and the reaction was carried out at 37° C. for 10 minutes.
Enzyme activities were determined by subtracting the blank value, i.e., the absorbance measured on the Correction solution, from the absorbance of each of the sample solutions and of the Control solution.

ICR male mice [3] = assay: Anti-hypoxic activity (survival time under 4% O2 + 96% N2); format: in vivo; settings: 30 minutes before mixed gas, control = 100
Procedure: Groups of ICR male mice, age 4 to 5 weeks, each group consisting of 10 mice and each mouse having been fasted for 24 hours, were used for the test. Mice were placed in a transparent desiccator (diameter: 19 cm, height: 30 cm) made of synthetic resin and having 2 bulbs, one at the upper portion and the other at the lower portion, for replacing the gas therein. A mixed gas (4% O2 +96% N2) was fed from the upper bulb at a rate of 10 l/min to measure the period of time until respiratory arrest took place for each mouse. The time measured was taken as the time of survival.
Each tested compound suspended in 5% gum arabic solution was intraperitoneally administered 30 minutes before the start of the mixed gas feeding. A group of mice to which only 5% gum arabic solution was intraperitoneally administered was used as a control.
Compounds, not sufficiently suspended in 5% gum arabic, were dissolved with Tween 80 so that the final concentration of the detergent was 3%, followed by the addition of 5% gum arabic. The anti-hypoxic activity was determined according to the following formula: [formula]

ICR male mice [4] = assay: Toxicity experiment, intraperitoneal administration; format: in vivo; settings: 300 mg/kg intraperitoneally in 5% gum arabic, period of 7 days
Procedure: Groups of ICR male mice, age 4 to 5 weeks, each group consisting of 10 mice were used for the test. A dose of 300 mg/kg of each compound prepared in Examples 1 and 2 hereinbelow suspended in 5% gum arabic was intraperitoneally administered to each group of mice.

Fisher 344 male rats = assay: Toxicity experiment, oral administration; format: in vivo; settings: period of 14 days; for Mortality: 500, 1,000, 1,500 and 2,000 mg/kg orally in propylene glycol
Excerpt: Groups of Fisher 344 male rats, age 6 weeks, each group consisting of 5 rats were used for the test.

ICR male mice [5] = assay: Anti-amnesic activity (cycloheximide-induced amnesia, step-down passive avoidance); format: in vivo; settings: for Amnesic Mice (%): latency shorter than 150 seconds at 24 hours
Procedure: Compounds of this invention were checked with respect to their abilities to prevent the inhibition of long-term memory fixation by cycloheximide which is an amnesia inducing compound. ICR male mice, age 6 to 7 weeks, were used for the test. The test was carried out using a step-down passive avoidance apparatus.
On the first day, a 5-minute training was given to each mouse which was placed on a rubber platform. Every time when the mouse stepped down on the grid floor, a 0.2 mA electric foot shock was applied until it stepped up on the platform. This motion of the mouse was repeated for 5 minutes.
Administration of cycloheximide and the compound of this invention was performed immediately after the training. Cycloheximide was dissolved in a saline and subcutaneously administered to the mouse. The compound of this invention, suspended in a sesame oil/Tween 80/5% gum arabic (3/1/96; by volume), was intraperitoneally administered. Aniracetam suspended in 5% gum arabic was orally administered. Twenty-four hours after the training, a retention test was performed, which consisted of placing the mouse on the platform again and measuring the latency of the mouse to step down on the grid floor. The amnesia ratio for each group of mice was determined as the percentage of amnesic mice taken latency shorter than 150 seconds.
- wherein %A is a percentage of amnesic mice, t denotes a test compound,
stands for cycloheximide, v stands for vehicle, and s stands for saline

[6] = read-out: Inhibition Potency, IC50
[7] = 30 mg/kg po + cycloheximide 200 mg/kg sc
[8] = 60 mg/kg po + cycloheximide 200 mg/kg sc
[9] = 1 mg/kg ip + cycloheximide 200 mg/kg sc
[10] = 3 mg/kg ip + cycloheximide 200 mg/kg sc

prolyl endopeptidase from Flavobacterium, sequence (P27028 21-705): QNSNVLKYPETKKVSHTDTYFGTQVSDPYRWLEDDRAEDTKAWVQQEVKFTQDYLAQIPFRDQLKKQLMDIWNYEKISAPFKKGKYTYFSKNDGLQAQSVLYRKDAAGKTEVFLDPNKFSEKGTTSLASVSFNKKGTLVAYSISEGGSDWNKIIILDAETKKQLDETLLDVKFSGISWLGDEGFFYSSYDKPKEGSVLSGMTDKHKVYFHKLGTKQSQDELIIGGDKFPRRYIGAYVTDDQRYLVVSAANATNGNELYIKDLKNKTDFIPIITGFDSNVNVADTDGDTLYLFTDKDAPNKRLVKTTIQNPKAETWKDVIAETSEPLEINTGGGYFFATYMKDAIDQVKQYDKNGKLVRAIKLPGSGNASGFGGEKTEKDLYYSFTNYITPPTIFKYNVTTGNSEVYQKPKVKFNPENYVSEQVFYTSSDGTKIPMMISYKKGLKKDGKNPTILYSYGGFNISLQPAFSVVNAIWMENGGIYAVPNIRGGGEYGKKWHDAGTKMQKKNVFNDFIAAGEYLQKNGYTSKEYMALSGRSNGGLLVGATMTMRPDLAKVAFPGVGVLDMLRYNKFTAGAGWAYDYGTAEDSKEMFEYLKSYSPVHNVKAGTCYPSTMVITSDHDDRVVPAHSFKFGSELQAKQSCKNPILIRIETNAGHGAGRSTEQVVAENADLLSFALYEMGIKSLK
T1 sequence (A0A8I3N6C8 1-710): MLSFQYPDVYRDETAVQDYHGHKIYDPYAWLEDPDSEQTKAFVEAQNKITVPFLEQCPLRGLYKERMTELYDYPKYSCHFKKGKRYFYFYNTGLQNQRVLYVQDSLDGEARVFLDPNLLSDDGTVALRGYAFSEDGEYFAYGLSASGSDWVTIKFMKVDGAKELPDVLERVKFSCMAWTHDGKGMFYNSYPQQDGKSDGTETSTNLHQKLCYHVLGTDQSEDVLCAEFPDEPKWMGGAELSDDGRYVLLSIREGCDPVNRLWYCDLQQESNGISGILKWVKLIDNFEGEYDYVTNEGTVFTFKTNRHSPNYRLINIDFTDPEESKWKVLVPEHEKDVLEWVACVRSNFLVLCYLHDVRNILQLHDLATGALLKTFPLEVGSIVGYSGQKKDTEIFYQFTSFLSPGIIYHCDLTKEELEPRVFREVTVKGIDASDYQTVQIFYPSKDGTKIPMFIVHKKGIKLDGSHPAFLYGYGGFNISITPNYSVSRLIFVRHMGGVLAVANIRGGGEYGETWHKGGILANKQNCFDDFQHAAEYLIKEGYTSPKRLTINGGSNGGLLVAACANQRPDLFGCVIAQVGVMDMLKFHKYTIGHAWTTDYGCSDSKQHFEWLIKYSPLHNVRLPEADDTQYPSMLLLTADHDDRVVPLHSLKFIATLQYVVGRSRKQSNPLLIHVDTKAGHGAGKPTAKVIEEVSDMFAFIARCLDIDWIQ

Question: What does the source list for `O=C([C@@H]1CCCN1C(=O)CCCc1ccccc1)N1CCSC1` [Compound of Ex. 2, N-(4-phenylbutanoyl)-L-prolylthiazolidineimide]?
Answer: IC50 [1, 6]: 0.15 µM; IC50 [2]: 0.041 µM; Anti-hypoxic Activity (%) (ICR male mice [3]; dose 100 mg/kg ip): 160%; Mortality (ICR male mice [4]): No fatal problem; Mortality (Fisher 344 male rats): No fatal problem

Question: Which results are given for `COc1ccc(C(=O)N2CCCC2=O)cc1` [Aniracetam, reference compound]?
Answer: IC50 [1]: > 1000 µM; Anti-hypoxic Activity (%) (ICR male mice [3]; dose 100 mg/kg ip): 115%; Anti-hypoxic Activity (%) (ICR male mice [3]; dose 300 mg/kg ip): 159%; Amnesia Reversal (%) (ICR male mice [5]; [7]): 22.8%; Amnesic Mice (%) (ICR male mice [5]; [7]): 42.9%; Amnesia Reversal (%) (ICR male mice [5]; [8]): 7.2%; Amnesic Mice (%) (ICR male mice [5]; [8]): 50.0%

Question: With `O=C([C@H]1CCCN1C(=O)CCCc1ccccc1)N1CCSC1` [Compound of Ex. 4, N-(4-phenylbutanoyl)-D-prolylthiazolidineimide] as the compound, how does the “Anti-hypoxic Activity (%)” value (ICR male mice [3]; dose 100 mg/kg ip) read?
Answer: Its value is 164%.

Question: What does the source list for `O=C([C@@H]1CSCN1C(=O)CCCc1ccccc1)N1CCCC1` [Compound of Ex. 3, N-(4-phenylbutanoyl)-L-thioprolylpyrrolidineimide]?
Answer: IC50 [2]: 0.031 µM; Anti-hypoxic Activity (%) (ICR male mice [3]; dose 100 mg/kg ip): 169%; Mortality (Fisher 344 male rats): No fatal problem

Question: What does the source list for `O=C([C@@H]1CSCN1C(=O)CCCc1ccccc1)N1CCSC1` [Compound of Ex. 1, N-(4-phenylbutanoyl)-L-thioprolylthiazolidineimide]?
Answer: IC50 [1, 6]: 0.087 µM; IC50 [2]: 0.017 µM; Anti-hypoxic Activity (%) (ICR male mice [3]; dose 100 mg/kg ip): 124%; Amnesia Reversal (%) (ICR male mice [5]; [9]): 28.2%; Amnesic Mice (%) (ICR male mice [5]; [9]): 52.9%; Amnesia Reversal (%) (ICR male mice [5]; [10]): 74.8%; Amnesic Mice (%) (ICR male mice [5]; [10]): 26.7%; Mortality (ICR male mice [4]): No fatal problem; Mortality (Fisher 344 male rats): No fatal problem

Question: `CC(C)(CO)[C@@H](O)C(=O)NCCCC(=O)O` [Calcium hopantenate, reference compound] was tested. Which IC50 ([1]; prolyl endopeptidase from Flavobacterium, substrate carbobenzoxyglycylprolyl paranitroanilide, 37° C., 10 minutes, read-out: Inhibition Potency, IC50) did it give?
Answer: Its IC50 is > 1000 µM.

Question: And the “Anti-hypoxic Activity (%)” value (ICR male mice [3]; dose 250 mg/kg ip)?
Answer: Its value is 135%.

Question: With `COC1=C(OC)C(=O)C(CCCCCCCCCCO)=C(C)C1=O` [Idebenone, reference compound] as the compound, how does the “Anti-hypoxic Activity (%)” value (ICR male mice [3]; dose 100 mg/kg ip) read?
Answer: The value was 140%.

Question: For `O=C([C@@H]1CCCN1C(=O)CCCc1ccccc1)N1CCCC1` [SUAM 1221, reference compound], which “Rats died out of the 5 rats” value (Fisher 344 male rats; 1,500 mg/kg orally) is on record?
Answer: Its value is “one”.

Question: And the “Rats died out of the 5 rats” value (Fisher 344 male rats; 2,000 mg/kg orally)?
Answer: The value was 2.
